Reference: patent publication US20060079453A1, “Hla binding peptides and their uses” (priority 2002, published 2006)
No end group written: not given here.

Columns and labels:
Experiment in all cases: biochemical
Type in all cases: binding
[1] = target: HLA-DR DRB1*0401 (DR4) (Homo sapiens, UniProt P01903+P01911, A100K/A169T/F76Y/I96L/K127E/L162R/M171V/N62H/P40V/Q125Y/R42H/S133A/S149N/S66Y/V115G/V209L/W38E); details: DRB1 *0401
[2] = target: HLA-DR DRB1*0101 (DR1) (Homo sapiens, UniProt P01903+P01911, A100R/D57E/F55L/F60I/F76Y/I96L/L162R/M171V/P40L/Q125E/R42F/V115G/Y59C); details: DRB1 *0101
[3] = target: HLA-DR DRB4*0101 (DR53) (Homo sapiens, UniProt P01903+P13762, G164S); details: DRB4 *0101
[4] = target: HLA-DR DRB3*0101 (DR52) (Homo sapiens, UniProt P01903+P79483)
[5] = target: HLA-DR DRB1*0301 (DR3) (Homo sapiens, UniProt P01903+P01911, A100K/A102G/A103R/A169T/F55Y/I96L/K41T/L162R/M171V/P40S/Q125H/Q178H/Q39Y/R42S/S66N/T106N/T262R/W38E/Y61H)
HLA-DR DRB1*0301 (DR3), sequence (P01903 26-254 limits assumed, other chains not shown): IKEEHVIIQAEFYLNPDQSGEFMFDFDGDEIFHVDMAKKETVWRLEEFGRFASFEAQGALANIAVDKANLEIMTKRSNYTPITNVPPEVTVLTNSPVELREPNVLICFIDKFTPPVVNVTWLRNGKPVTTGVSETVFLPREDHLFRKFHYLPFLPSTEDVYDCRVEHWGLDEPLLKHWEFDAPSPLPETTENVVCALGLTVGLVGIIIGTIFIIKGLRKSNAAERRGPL

[6] = target: HLA-DR DRB1*0701 (DR7) (Homo sapiens, UniProt P01903+P01911, A100R/A102G/A103Q/D57E/D86V/E43K/F76Y/K127E/L162R/M171V/P40G/Q125H/Q99D/R33Q/R42Y/R54Q/S133A/S66F/T210M/V115G/Y107V/Y59L/Y89S); details: DRB1 *0701
[7] = target: HLA-DR DRB1*0901 (DR9) (Homo sapiens, UniProt P01903+P01911, A100R/A103E/D57H/D86V/F55Y/F60I/F76Y/I96F/K127E/L162R/M171V/P40D/Q125H/Q99R/R33Q/R42F/S133A/S66N/T210M/V115G/W38K/Y107V/Y59G/Y89S); details: DRB1 *0901
[8] = target: HLA-DR DRB1*1101 (DR11) (Homo sapiens, UniProt P01903+P01911, A100R/A169T/A87E/I96F/K41T/L162R/M171V/P40S/Q125H/Q178H/Q39Y/Q99D/R42S/S66Y/T262R/V115G/W38E); details: DRB1 *1101
HLA-DR DRB1*1101 (DR11), sequence (P01903 26-254 limits assumed, other chains not shown): as above

[9] = target: HLA-DR DRB1*1302 (DR13) (Homo sapiens, UniProt P01903+P01911, A100E/A169T/K41T/L162R/M171V/P40S/Q125H/Q178H/Q39Y/Q99D/R42S/S66N/T262R/V115G/W38E/Y61H); details: DRBI *1302
HLA-DR DRB1*1302 (DR13), sequence (P01903 26-254 limits assumed, other chains not shown): as above

[10] = target: HLA-DR DRB5*0101 (DR51) (Homo sapiens, UniProt P01903+Q30154); details: DRB5 *0101
[11] = target: HLA-DR DRB1*1501 (DR15) (Homo sapiens, UniProt P01903+P01911); details: DRBI *1501

| Compound | IC50 [1] [µM] | IC50 [2] [µM] | IC50 [3] [µM] | IC50 [4] [µM] | IC50 [5] [µM] | IC50 [6] [µM] | IC50 [7] [µM] | IC50 [8] [µM] | IC50 [9] [µM] | IC50 [10] [µM] | IC50 [11] [µM] |
| --- | --- | --- | --- | --- | --- | --- | --- | --- | --- | --- | --- |
| CC[C@H](C)[C@H](NC(=O)[C@H](Cc1c[nH]c2ccccc12)NC(=O)[C@@H](NC(=O)[C@@H](N)C(C)C)[C@@H](C)O)C(=O)NCC(=O)N[C@@H](C)C(=O)N[C@@H](C)C(=O)N1CCC[C@H]1C(=O)N[C@@H](CC(C)C)C(=O)N[C@H](C(=O)N[C@@H](CC(C)C)C(=O)N[C@@H](CO)C(=O)N[C@@H](CCCNC(=N)N)C(=O)N[C@H](C(=O)N[C@H](C(=O)O)C(C)C)[C@@H](C)CC)[C@@H](C)CC | 8 | 0.0081 | 0.088 | > 10.7 | > 81.8 | 0.195 | 0.082 | 1.78 | 2.34 | – | – |
| C[C@@H](O)[C@H](NC(=O)[C@H](CCCCN)NC(=O)[C@H](CCC(=O)O)NC(=O)[C@H](CCC(=O)O)NC(=O)CNC(=O)[C@H](Cc1ccccc1)NC(=O)[C@H](CCCNC(=N)N)NC(=O)[C@H](Cc1ccccc1)NC(=O)[C@H](CO)NC(=O)[C@H](CCC(=O)O)NC(=O)[C@H](CCC(=O)O)NC(=O)[C@@H]1CCCN1C(=O)[C@@H]1CCCN1)C(=O)N[C@H](C(=O)N1CCC[C@H]1C(=O)N[C@@H](CO)C(=O)O)[C@@H](C)O | – | > 2.5 | – | > 14.3 | > 900 | > 12.5 | – | > 10 | – | > 2.86 | – |
| CC(C)C[C@H](NC(=O)CNC(=O)[C@H](CC(N)=O)NC(=O)[C@H](Cc1ccc(O)cc1)NC(=O)[C@@H](NC(=O)[C@H](CC(=O)O)NC(=O)[C@H](CC(C)C)NC(=O)[C@H](C)N)C(C)C)C(=O)N[C@@H](CC(C)C)C(=O)N1CCC[C@H]1C(=O)N1CCC[C@H]1C(=O)N[C@@H](Cc1ccc(O)cc1)C(=O)N[C@@H](C)C(=O)N[C@@H](CO)C(=O)N[C@@H](CS)C(=O)O | 0.485 | 0.018 | > 10.1 | > 15 | – | > 83.3 | 86.6 | – | > 35 | 115 | 1.09 |
| LLYTFRKDMDKVETF | 10.6 | > 18 | – | 0.941 | 23.9 | 53.4 | > 59.5 | 7.9 | > 14.5 | – | 0.886 |
| QKGRGYRGQHQAHSLERVCH | 0.088 | – | 18 | > 500 | > 47.4 | – | – | 30.2 | – | 9.76 | > 9.1 |
| CC(C)C[C@H](NC(=O)CNC(=O)[C@H](CC(N)=O)NC(=O)[C@H](Cc1ccc(O)cc1)NC(=O)[C@@H](NC(=O)[C@H](CC(=O)O)NC(=O)[C@@H](N)CC(C)C)C(C)C)C(=O)N[C@@H](CC(C)C)C(=O)N1CCC[C@H]1C(=O)N1CCC[C@H]1C(=O)N[C@@H](Cc1ccc(O)cc1)C(=O)N[C@@H](C)C(=O)N[C@@H](CO)C(=O)N[C@@H](CS)C(=O)N[C@@H](Cc1c[nH]cn1)C(=O)O | 0.348 | 0.015 | > 10.9 | > 15 | – | > 83.3 | 31.3 | – | > 35 | 25.8 | 3.03 |
| CC[C@H](C)[C@H](NC(=O)CNC(=O)[C@H](Cc1ccc(O)cc1)NC(=O)[C@H](CC(C)C)NC(=O)[C@H](CO)NC(=O)[C@H](CC(C)C)NC(=O)[C@H](CC(C)C)NC(=O)[C@H](CO)NC(=O)[C@H](CC(C)C)NC(=O)[C@H](CCC(=O)O)NC(=O)[C@H](CO)NC(=O)[C@@H](N)CC(C)C)C(=O)N[C@@H](Cc1c[nH]cn1)C(=O)N[C@@H](CCCCN)C(=O)N[C@@H](CCC(N)=O)C(=O)O | 1.55 | 0.482 | 0.079 | > 13 | > 81.8 | 20.9 | 1.45 | 1.66 | – | 0.0073 | 0.045 |
